Assays:
[1] = test system: Plutella xylostella (Diamond back moth) ryanodine receptor, containing the G4946E resistance mutation; test: In vitro calcium fluorescence assay (Fluo-8 NW, FDSS) in human embryonic kidney cells expressing the ryanodine receptor; format: cell-based; conditions: table; EC50 (compound)/EC50 (cyantraniliprole); G4946E RyR in HEK cells
Outline: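 Fluo-8 NW-loaded cells, compounds at 10 rates, intracellular calcium fluorescence read on FDSS. EC50 from dose-response curves, normalized to in-assay cyantraniliprole as REC50 = EC50(compound)/EC50(cyantraniliprole).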

SMILES	melting point [°C]	REC50 (Compound of the invention) [1]
COc1cc(C(=O)Nc2c(Cl)cc(Cl)cc2C(N)=O)n(-c2ncccc2Cl)n1 [Compound P59, N-(2-carbamoyl-4,6-dichloro-phenyl)-2-(3-chloro-2-pyridyl)-5-methoxy-pyrazole-3-carboxamide]	155 to 160	0.62
CCc1cc(C(=O)Nc2c(C)cc(Cl)cc2C(N)=O)n(-c2ncccc2Cl)n1 [Compound P75, N-(2-carbamoyl-4-chloro-6-methyl-phenyl)-2-(3-chloro-2-pyridyl)-5-ethyl-pyrazole-3-carboxamide]	245 to 250	0.69

From patent US20240308988A1, “Method For Controlling Diamide Resistant Pests and Compounds Therefor” (priority 2021, published 2024)
